# Laboratory results published in patent publication US20250179051A1, “PYRIMIDINLY-OXY-QUINOLINE BASED HERBICIDAL COMPOUNDS” (SYNGENTA CROP PROTECTION AG, priority 2022, published 2025).
# Columns and labels:
# Format in all cases: in vivo
# Details in all cases: 250 g/ha, evaluated after 13 days, five-point scale
# [1] = system: Amaranthus palmeri (AMAPA); assay: Pre-emergence herbicide glasshouse test
# Procedure, shortened: (§1)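 Spray at 250 g/ha (unless stated), acetone/water 50:50 + 0.5% Tween 20; pre-em 1 d post-sowing, post-em after 8 d growth. Glasshouse 24/16 °C, 14 h light, 65% RH, watered twice daily. % damage read at 13 d, scored 1 (0–20%) to 5 (81–100%).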
# [2] = system: Ipomoea hederacea (IPOHE); assay: Pre-emergence herbicide glasshouse test
# Procedure, shortened: as §1
# [3] = system: Amaranthus retoflexus (AMARE); assay: Pre-emergence herbicide glasshouse test
# Procedure, shortened: as §1
# [4] = system: Echinochloa crus-galli (ECHCG); assay: Pre-emergence herbicide glasshouse test
# Procedure, shortened: as §1
# [5] = system: Setaria faberi (SETFA); assay: Pre-emergence herbicide glasshouse test
# Procedure, shortened: as §1
# [6] = system: Amaranthus palmeri (AMAPA); assay: Post-emergence herbicide glasshouse test
# Procedure, shortened: as §1
# [7] = system: Ipomoea hederacea (IPOHE); assay: Post-emergence herbicide glasshouse test
# Procedure, shortened: as §1
# [8] = system: Amaranthus retoflexus (AMARE); assay: Post-emergence herbicide glasshouse test
# Procedure, shortened: as §1
# [9] = system: Echinochloa crus-galli (ECHCG); assay: Post-emergence herbicide glasshouse test
# Procedure, shortened: as §1
# [10] = system: Setaria faberi (SETFA); assay: Post-emergence herbicide glasshouse test
# Procedure, shortened: as §1
SMILES,"percentage damage caused to the plant, AMAPA [1]","percentage damage caused to the plant, IPOHE [2]","percentage damage caused to the plant, AMARE [3]","percentage damage caused to the plant, ECHCG [4]","percentage damage caused to the plant, SETFA [5]","percentage damage caused to the plant, AMAPA [6]","percentage damage caused to the plant, IPOHE [7]","percentage damage caused to the plant, AMARE [8]","percentage damage caused to the plant, ECHCG [9]","percentage damage caused to the plant, SETFA [10]"
Cc1ccc(Oc2ncc(Cl)cn2)c2c(CCC3CC3)nc(C(F)(F)F)nc12 [Compound 1.059],1 (1=0-20%),1 (1=0-20%),1 (1=0-20%),1 (1=0-20%),1 (1=0-20%),2 (2=21-40%),3 (3=41-60%),2 (2=21-40%),1 (1=0-20%),1 (1=0-20%)
FC(F)(F)c1nc(CCC2CC2)c2c(Oc3ncc(Cl)cn3)ccc(Br)c2n1 [Compound 1.060],2 (2=21-40%),1 (1=0-20%),1 (1=0-20%),1 (1=0-20%),2 (2=21-40%),3 (3=41-60%),3 (3=41-60%),3 (3=41-60%),1 (1=0-20%),2 (2=21-40%)
CC(=NOCC1CC1)c1nc(C(F)(F)F)nc2cccc(Oc3ncc(Cl)cn3)c12 [Compound 1.065],1 (1=0-20%),1 (1=0-20%),1 (1=0-20%),1 (1=0-20%),1 (1=0-20%),2 (2=21-40%),1 (1=0-20%),2 (2=21-40%),1 (1=0-20%),1 (1=0-20%)
CON=C(C)c1nc(C(F)(F)F)nc2cccc(Oc3ncc(Cl)cn3)c12 [Compound 1.066],4 (4=61-80%),1 (1=0-20%),1 (1=0-20%),1 (1=0-20%),1 (1=0-20%),2 (2=21-40%),1 (1=0-20%),1 (1=0-20%),1 (1=0-20%),1 (1=0-20%)
C=CCON=CCCc1nc(C(F)(F)F)nc2cccc(Oc3ncc(Cl)cn3)c12 [Compound 1.067],5 (5=81-100%),1 (1=0-20%),3 (3=41-60%),5 (5=81-100%),5 (5=81-100%),5 (5=81-100%),3 (3=41-60%),4 (4=61-80%),4 (4=61-80%),5 (5=81-100%)
FC(F)(F)c1nc(CCC=NOCC2CC2)c2c(Oc3ncc(Cl)cn3)cccc2n1 [Compound 1.068],5 (5=81-100%),1 (1=0-20%),4 (4=61-80%),3 (3=41-60%),5 (5=81-100%),5 (5=81-100%),1 (1=0-20%),5 (5=81-100%),5 (5=81-100%),5 (5=81-100%)
FC(F)(F)c1nc(-c2ncccn2)c2c(Oc3ncc(Cl)cn3)cccc2n1 [Compound 1.069],1 (1=0-20%),1 (1=0-20%),1 (1=0-20%),1 (1=0-20%),1 (1=0-20%),1 (1=0-20%),1 (1=0-20%),1 (1=0-20%),1 (1=0-20%),1 (1=0-20%)
O=C(c1ccc(Cl)cn1)c1nc(C(F)(F)F)nc2cccc(Oc3ncc(Cl)cn3)c12 [Compound 1.070],5 (5=81-100%),1 (1=0-20%),5 (5=81-100%),1 (1=0-20%),1 (1=0-20%),1 (1=0-20%),1 (1=0-20%),2 (2=21-40%),1 (1=0-20%),1 (1=0-20%)
FC(F)(F)CCC(Br)c1nc(C(F)(F)F)nc2cccc(Oc3ncc(Cl)cn3)c12 (stereo not drawn) [Compound 1.071],5 (5=81-100%),1 (1=0-20%),5 (5=81-100%),5 (5=81-100%),5 (5=81-100%),5 (5=81-100%),3 (3=41-60%),5 (5=81-100%),5 (5=81-100%),4 (4=61-80%)
